For experiment [1], the system named is W9 probe (isolated 9 bp AT-tract). Put plainly: DNase I footprinting on W9 probe. The class given is binding. An excerpt: To target AT-tracts, the principal component of satellite I, III and SARs), a pyrrole pentamer was synthesized by facile solid phase chemistry in which five pyrrole (Py) aromatic amino acid rings are linked covalently by amide bonds (Baird and Dervan, 1996). The resulting compound, termed P7 had the sequence Py-Py-Py-Py-Py-β-Dp (where β=β-alanine and Dp=dimethylaminopropylamide). This compound is expected to bind 7 successive A or T base pairs (Ws) according to the n+1 rule where n is the number of amides (Youngquist and Dervan, 1985). The DNA binding properties of P7 were assessed by DNAse I footprinting experiments using a synthetic probe containing isolated, repeated AT-tracts of 9 Ws (W9, FIG. 2A). By visual inspection, the apparent dissociation constant (Kapp) for P7 was estimated to be approximately 80 nM (Table 3).
were hybridized to obtain the W9 probe, oligomerized by ligation and digested with BamHl and BglII to obtain different tandem repeats. The following oligonucleotides were prepared identically:
(§1) Fragments were purified on low-melt agarose gels and then cloned into a modified pSP64 vector, cut by BamHI and BglII. End-labeling was carried out following digestion with HindIII and a fill-in reaction with Klenow DNA polymerase. The labeled plasmid was cut with PvuII and the target fragments purified from low-melting agarose gels. The 657 bp EcoRl/Hinf1 fragment of the Drosophila histone SAR was cloned into the SmaI site of the modified pSP64 plasmid. This SAR probe was end-labeled following digestion with EcoRl, then cut with ClaI and the resulting 347 bp fragment purified from low-melting agarose gels.
(§2) All reactions were performed in a total volume of 40 μl. A polyamide stock solution or buffer (for reference lanes) was added to an assay buffer containing 20 kcpm radiolabeled DNA, affording final concentrations of 10 mM Tris-HCl (pH 7.4), 10 mM KCl, 10 mM MgCl, 5 mM CaCl2, 0.5 mM EDTA, 0.5 mM EGTA, 1 mM DTT and 0.1% digitonine. The solutions were allowed to equilibrate for at least 2 h at room temperature. Footprinting reactions were initiated by the addition of 2 μl of a DNase stock solution (containing −100 pg DNase I in buffer) and allowed to proceed for 2 min at room temperature. The reactions were stopped by addition of 10 μl of a solution containing 1.25 M NaCl, 100 mM EDTA. Next, 5 μl of a 1% SDS solution was added, followed by 2 μl of a solution containing 1 μg poly(dA-dT), 1 μg salmon sperm DNA and 10 μg glycogen and the DNA was ethanol precipitated (20 min at −20° C.). The reactions were resuspended in 4 μl of 80% formamide loading buffer, denatured 10 min at 85° C., cooled on ice and electrophoresed on 8% polyacrylamide denaturing gels (5% cross-link, 8 M urea) at 30 W for 1 h. The gels were dried and exposed o/n at −70° C.

In experiment [2] the test system is Drosophila histone SAR probe (clustered/long AT-tracts). Put plainly: DNase I footprinting on SAR probe. It is filed as binding. How it is done: Since satellite I is composed of exclusively A and T bases, it constitutes an ‘ideal’ binding substrate for oligopyrroles. But to obtain SAR-specific compounds, molecules are required that preferably bind its clustered, irregularly spaced AT-tracts. Binding studies were carried out with P9, P7 and P13 on the Drosophila histone SAR probe which contains the following clustered/long AT-tracts (W15N3W17N5W16N13W8NW6 where N is any base, see also FIG. 3D). […] The ratio of these two affinities is used (KappW9/KappSAR) as an empirical measure of SAR specificity. For all compounds tested thus far, this value (referred to as SAR preference factor) was around unity (Table 3).
as §1, §2

The test system of experiment [3] is Drosophila satellite III chromatin (topoisomerase II cleavage). Kind of experiment: Topoisomerase II cleavage in satellite III of Kc nuclei in Xenopus egg extracts with VM26. The class given is biochemical. The following applies: for concentration giving massive cleavage stimulation: P31 at 500 nM comparable to P9 at 62 nM (lowest tested).
The subject of experiment [4] is sperm nuclei (condensation to chromatids). Kind of experiment: Chromosome condensation of sperm nuclei in mitotic Xenopus egg extracts. It is filed as biochemical. The source says: Mitotic Xenopus egg extracts convert added nuclei and sperm to chromatids in vitro. This chromosome condensation process requires topoisomerase II (Adachi et al., 1991), the protein complex condensin (Hirano T, 1997) and presumably other unidentified activities present in the mitotic extract. First, chromatin is remodeled and nuclei then proceed quite synchronously through a number of morphologically distinguishable steps (Hirano and Mitchison, 1991). Remodeling is morphological manifested by swelling of the nuclei which involves exchange of basic sperm-specific proteins for H2A/H2B and the incorporation of histone B4 (Dimitrov S, 1994).
Pyrrole drugs were added to the extract together with the sperm or after the remodeling step (at 10 minutes) and the extent of condensation was determined after 120 min. At this time point, the conversion of all sperm nuclei to clusters of individual chromatids is complete in the absence of drug (FIG. 8A, control). […] Addition of this compound at 125 to 250 nM (indicated) arrested this process at the so-called early ‘ruffle’ stage (FIG. 8A). These structures retain the swollen sperm shape, but they have peripheral blebs (ruffles) and a slightly heterogeneous interior. At this drug concentration, no chromatids are seen. If the concentration of Lex10 is raised to 500 nM, we observed an even earlier arrest as evidenced by the accumulation of swollen, remodeled sperm-shaped nuclei containing a homogeneous interior and smooth periphery. […] The monomer P7 was also tested but we observed no inhibition with the pyrrole pentamer up to the highest concentration (8 μM) tested. Condensation was inhibited at a ruffle stage with a P9 concentration of 2 μM (not shown).
In the experiment shown in FIG. 8B, Lex10 was added to the extract at a final concentration of 1 μM (several fold above the minimum inhibitory concentration) after which competitor oligonucleotides were added at different stages. Three different oligonucleotides of similar size were used: the SAR oligo contains two large clustered AT-tracts of the SAR probe (W17N5W15), the W9 oligo has a single AT tract of 9 base pairs and the GAGAA oligo harbors 5 tandem GAGAA repeats.
Topoisomerase II inhibition and chromosome assembly were as described previously (Girard et al., 1998, Strick and Laemmli, 1995). Affinity cleavage experiments was performed as described elsewhere (Turner et al., 1997).

The test system of another experiment is satellite III chromatin. Put plainly: Restriction enzyme (HaeIII) cleavage within satellite III chromatin. It is filed as biochemical, Drosophila. The following applies: data not shown. An excerpt:
Satellite III repeats contain near the topoisomerase II cleavage site a HaeIII restriction sequence. […] We made a similar observation using P9 (data not shown).

Experiment [5] has as its target two GAGAA repeats (GAF31 probe). Kind of experiment: DNase I footprinting on GAGAA repeats. The following applies: read-out: apparent binding constant. An excerpt: In the framework of a search for molecular tools to study PEV, polyamide that targets the abundant satellite V composed of GAGAA repeats (Lohe et al., 1993) was synthesised. Designing molecules that would bind to this repeat motif represented a challenge since with current knowledge, targeting of sequences containing 5′-GNG-3′ or 5′-GA-3′ with drugs composed of pyrrole and imidazole is difficult. However, successful targeting to sequences containing 5′-GTG-3′ was previously achieved using an Im-β-Im motif where β-alanine replaces the function of pyrrole (Turner et al., 1998). Since β-alanine, like pyrroles, is degenerate for A.T and T.A base pairs, we designed a compound based on these observations, to recognize a sequence composed of two tandem GAGAA repeats by systematic placement of β-alanine at the N-terminal neighbor of imidazole. The binding affinity and specificity of this compound, termed P31 (=Im-β-Im-Py-β-Im-β-Im-β-Dp), were evaluated by DNAse I footprinting. For this purpose, two different probes were examined, both containing GAGAA repeats. […] The apparent binding constant of P31 for this sequence was estimated at 0.25 nM. At higher concentrations, protection of two mismatch binding sites was observed. One of these sites contains an AAGTG motif (FIG. 5A).
GAF31 is composed of the oligonucleotides:
(§3) All reactions were performed in a total volume of 40 μl. […]

For experiment [6], the system named is CACAA repeats (Brown I probe). Kind of experiment: DNase I footprinting on CACAA repeats. It is filed as binding. An excerpt: A drawback of this binding model, as opposed to conventional 2:1 drug to DNA complexes, is that P31 is expected to bind degenerate GC and CG base pairs, albeit with different affinity. The consensus sequence can thus be defined as […], where S stands for a G or C and W for A or T. To evaluate binding of P31 to CACAA repeats, we used a second probe that contains two of these repeats as well as five tandem GAGAA repeats. […] Again, it is observed than this molecule binds as a 1:1 drug to DNA complex in an orientation as indicated by arrowheads (FIG. 5A). We propose that special structural features of AT-tracts and GAGAA repeats might favor 1:1 DNA to drug complexes (see Discussion).
All reactions were performed in a total volume of 40 μl. A polyamide stock solution or buffer (for reference lanes) was added to an assay buffer containing 20 kcpm radiolabeled DNA, affording final concentrations of 10 mM Tris-HCl (pH 7.4), 10 mM KCl, 10 mM MgCl, 5 mM CaCl2, 0.5 mM EDTA, 0.5 mM EGTA, 1 mM DTT and 0.1% digitonine. The solutions were allowed to equilibrate for at least 2 h at room temperature. Footprinting reactions were initiated by the addition of 2 μl of a DNase stock solution (containing −100 pg DNase I in buffer) and allowed to proceed for 2 min at room temperature. The reactions were stopped by addition of 10 μl of a solution containing 1.25 M NaCl, 100 mM EDTA. […]

Experiment [7] relates to GAGA factor (GAF) binding site from the Ubx promoter (GAF31 probe). Put plainly: DNase I footprinting on Ubx GAF binding site.
Excerpt: Panel A: DNAse I footprinting experiment with P31 and affinity cleavage with P31E are shown on GAF31 and the Brown I probes. The GAF31 and Brown I probes contains a (AAGAG)2 motif and GAGA factor (GAF) binding site from the Ubx promoter (Biggin et al., 1988). […] The Brown I oligo (a tandem repeat) includes an (AAGAG)5 binding site and a degenerate P31 binding site (AACAC)2 as indicated. P31 concentrations used (nM) are indicated. […] Binding orientations of P31E on these probes are indicated by arrowheads on the brackets pointing towards the N-terminus of the molecule. The letter G refers the G nucleotide cleavage reaction. Panel B: DNAse I footprinting experiment with purified GAGA factor (GAF) on the GAF31 probe. Note that GAF binds both the (AAGAG)2 motif and the binding site from the Ubx promoter.
A footprint experiment was therefore carried out with this protein. The DNA probe (GAF31) used for this purpose contains besides the (AAGAG)2 motif (the target of P31) a typical promoter proximal GAF binding site derived from the Ubx gene (Biggin et al., 1988). This Ubx site contains the pentameric consensus sequence […] of GAF (Omichinski et al., 1997).
as §3

The subject of experiment [8] is GAGA factor (GAF) function. Kind of experiment: Feeding to developing Drosophila melanogaster of brown-dominant genotype. The class given is in vivo. The following applies: fed to developing flies.

Several values for one entry are separate records, joined by “and”; a condition that tells them apart may be missing. Equal entries are not always repeated. Where two headings read alike, the source gives them in different places.

With `CN(C)CCCNC(=O)CCNC(=O)c1cc(NC(=O)c2cc(NC(=O)c3cc(NC(=O)CCNC(=O)c4cc(NC(=O)c5cc(NC(=O)c6cccn6C)cn5C)cn4C)cn3C)cn2C)cn1C` [Compound P9, PyPyPy-β-PyPyPy-β-Dp], the “better affinity for W9 than P7” value in experiment [1] was 100 fold. Moreover, in experiment [1] (apparent dissociation constant, W9 probe, read-out: Kdapp W9), the Kd is ~0.75 nM and 0.75 nM. Besides, the “Ratio (KappW9/KappSAR, SAR preference factor)” value in experiment [2] is 1.4. Moreover, the Kd in [2] (apparent dissociation constant, SAR probe, read-out: Kdapp SAR) was determined as 0.55 nM. In addition, the “SAR specificity factor after tagging with fluorescent label” value in experiment [2] (value of the tagged derivative) stood at 3. In [3], the “concentration of maximal stimulation of topoisomerase II cleavage” value is 500 nM and 500 to 1000 nM; the “lower concentration for opening satellite III than P31” value was “roughly 10 fold”; the “stimulation of topoisomerase II cleavage in satellite III” value was “massively stimulated”; the “concentration giving massive cleavage stimulation” value is given as 62 nM. Besides, the “concentration inhibiting chromosome condensation (block at ruffle stage)” value in [4] (120 min) amounted to 2 µM. Moreover, in experiment [4] (P9 2 μM, 500 ng of SAR-, W9- or GAGAA-oligo), the “reversal of condensation inhibition by competitor oligonucleotide” value is “did not rescue chromatid assembly”. Besides, the “restriction enzyme cleavage within satellite III” value in the experiment on satellite III chromatin is “facilitated cleavage”.

As to `CN(C)CCCNC(=O)CCNC(=O)c1nc(NC(=O)CCNC(=O)c2nc(NC(=O)CCNC(=O)c3cc(NC(=O)c4nc(NC(=O)CCNC(=O)c5nccn5C)cn4C)cn3C)cn2C)cn1C` [Compound P31, Im-β-Im-Py-β-Im-β-Im-β-Dp], the Kd in [5] came out at 0.25 nM. For the same compound, the “affinity for CACAA repeats relative to GAGAA repeats” value in [6] was “approximately five fold lower affinity”. Moreover, the “binding to Ubx GAF binding site” value in experiment [7] is reported as “does not bind”. In experiment [3], the “concentration giving massive cleavage stimulation” value was determined as 500 nM. In experiment [3] (up to a concentration of 200 nM), the “stimulation of topoisomerase II cleavage in satellite III” value is reported as “no significant reinforcement of the pattern”. The “effect on GAGA factor function in flies” value in [8] is “interferes with the function of the GAGA factor (GAF)”.

Values taken from patent publication US20020169296A1, “Linked, sequence-specific DNA-binding molecules” (priority 2000, published 2002).
